Results taken from patent publication US6534530B1, “Antipicornaviral compounds and compositions, their pharmaceutical uses, and materials for their synthesis” (Agouron Pharmaceuticals, Inc., priority 1999, dated 2003).
pEC50, pKi: −log10 of the molar value. Like-named read-outs stand apart in the source and are kept apart here.

Experiments:
in vitro = details: human
HRV-14 = test: Antirhinoviral H1-HeLa cell culture assay (XTT), HRV-14; type: cell-based, human rhinovirus; details: Rhinovirus B, HRV14, HRV-14, H1-HeLa cells
[1] = biological target: T1, recombinant rhinovirus 3C protease, serotype 14 (Human rhinovirus 14, UniProt P03303); test: Inhibition of rhinovirus 3C protease (FRET assay), serotype 14; type: biochemical
T1 construct: Recombinant rhinovirus 3C proteases; made in house
T1 sequence (P03303 1538-1719): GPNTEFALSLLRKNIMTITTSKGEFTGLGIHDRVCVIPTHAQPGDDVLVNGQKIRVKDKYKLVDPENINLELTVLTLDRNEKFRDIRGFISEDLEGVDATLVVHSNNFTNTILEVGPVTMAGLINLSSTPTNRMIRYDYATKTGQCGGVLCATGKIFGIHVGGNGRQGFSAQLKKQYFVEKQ
Description: Stock solutions (50 mM, in DMSO) of various compounds were prepared; dilutions were in the same solvent. Recombinant rhinovirus 3C proteases (see Birch et al., “Purification of recombinant human rhinovirus 14 3C protease expressed in Escherichia coli,” Protein Expr. Pur. (1995), vol. 6(5), 609-618) from serotypes 14, 16, and 2 were prepared by the following standard chromatographic procedures: (1) ion exchange using Q Sepharose Fast Flow from Pharmacia; (2) affinity chromatography using Affi-Gel Blue from Biorad; and (3) sizing using Sephadex G-100 from Pharmacia. Each assay sample contained 2% DMSO, 50 mM tris pH 7.6, 1 mM EDTA, a test compound at the indicated concentration, approximately 1 μM substrate, and 50-100 nM protease. The kobs/I values were obtained from reactions initiated by addition of enzyme rather than substrate. RVP activity was measured in the fluorescence resonance energy transfer assay. The substrate was (N-terminal) DABCYL-([…]-EDANS. In the uncleaved peptide, the EDANS fluorescence was quenched by the proximal DABCYL moiety. When the peptide was cleaved, the quenching was relieved, and activity was measured as an increase in fluorescence signal. The tabulated data in the column designated kobs/[I] were measured from progress curves in enzyme start experiments.

Compound	CC50 at 2 days (in vitro; mock-infected H1-HeLa cells) [µM]	pEC50 (HRV-14)	pKi [1]	further results
CNC(=O)C(=O)[C@H](CNC(C)=O)NC(=O)[C@H](Cc1ccccc1)NC(=O)[C@H](CC(C)C)NC(=O)OCc1ccccc1 [Compound 10, Cbz-L-Leu-L-Phe-L-(N-Ac-amino-Ala)-C(O)NHCH3]	> 320	3.60	4.70	
CSCC(=O)[C@H](CCC(=O)NC(c1ccccc1)(c1ccccc1)c1ccccc1)NC(=O)[C@H](Cc1ccccc1)NC(=O)[C@H](CC(C)C)NC(=O)OCc1ccccc1 [Compound 1, Cbz-L-Leu-L-Phe-L-(Tr-Gln)-CH2SCH3]			5.05	
CC(C)C[C@H](NC(=O)OCc1ccccc1)C(=O)N[C@@H](Cc1ccccc1)C(=O)N[C@@H](C[C@@H]1CCNC1=O)C(=O)c1ccccn1 [Compound 23, Cbz-L-Leu-L-Phe-L-[(S)-Pyrrol-Ala]-2-Pyridine]	200	5.40	6.77	
CC(C)C[C@H](NC(=O)OCc1ccccc1)C(=O)N[C@@H](Cc1ccccc1)C(=O)N[C@@H](CNC(=O)OC(C)(C)C)C(=O)c1ccccn1 [Compound 7, Cbz-L-Leu-L-Phe-L-(N-Boc-amino-Ala)-2-Pyridine]			4.15	
Cbz-L-Leu-L-Phe-L-(N-Boc-amino-Ala)-CH3 [Compound 4]				pKi ([1]; HRV-14 3C protease, read-out: Ki): 4.79
C#CC(=O)[C@H](CNC(C)=O)NC(=O)[C@H](Cc1ccccc1)NC(=O)[C@H](CNC(C)=O)NC(=O)OCc1ccccc1 [Compound 16]	> 100	< 4.00	7.46	
CC(C)C[C@H](NC(=O)OCc1ccccc1)C(=O)N[C@@H](Cc1ccccc1)C(=O)N[C@@H](C[C@@H]1CCNC1=O)C(=O)c1cc2ccccc2s1 [Compound 25, Cbz-L-Leu-L-Phe-L-[(S)-Pyrrol-Ala]-2-Benzothiophene]	> 10	< 5.00	5.33	
CC(=O)NC[C@H](NC(=O)[C@H](Cc1ccccc1)NC(=O)[C@H](CC(C)C)NC(=O)OCc1ccccc1)C(=O)C(=O)N1CCCCC1 [Compound 11, Cbz-L-Leu-L-Phe-L-(N-Ac-amino-Ala)-C(O)-Piperidine]			< 3.96	
CC(=O)NC[C@H](NC(=O)[C@H](Cc1ccccc1)NC(=O)[C@H](CC(C)C)NC(=O)OCc1ccccc1)C(C)=O [Compound 5, Cbz-L-Leu-L-Phe-L-(N-Ac-amino-Ala)-CH3]			3.86	
CC(C)C[C@H](NC(=O)OCc1ccccc1)C(=O)N[C@@H](Cc1ccccc1)C(=O)N[C@@H](CNC(=O)OC(C)(C)C)C(=O)c1nc2ccccc2s1 [Compound 6, Cbz-L-Leu-L-Phe-L-(N-Boc-amino-Ala)-2-Benzthiazole]			5.32	
CSCC(=O)[C@H](CCC(N)=O)NC(=O)[C@H](Cc1ccccc1)NC(=O)[C@H](CC(C)C)NC(=O)OCc1ccccc1 [Compound 2, Cbz-L-Leu-L-Phe-L-(Gln)-CH2SCH3]			4.30	
Cc1cc(CCCOc2c(C)cc(-c3noc(C(F)(F)F)n3)cc2C)on1 [Pleconaril, reference compound]	> 10	8.00		
CC(=O)NC[C@H](NC(=O)[C@H](Cc1ccccc1)NC(=O)[C@H](CC(C)C)NC(=O)OCc1ccccc1)C(=O)c1ccccn1 [Compound 8, Cbz-L-Leu-L-Phe-L-(N-Ac-amino-Ala)-2-Pyridine]			4.10	
CC(C)C[C@H](NC(=O)OCc1ccccc1)C(=O)N[C@@H](Cc1ccccc1)C(=O)N[C@@H](CCC(N)=O)C(=O)COC(=O)c1c(Cl)cccc1Cl [Compound 27, Cbz-L-Leu-L-Phe-L-Gln-CH2OC(O)-(2,6-dichlorophenyl)]				kinact/KI ([1]; pH 7.6, HRV-14 3C protease, progress curves in enzyme start experiments, read-out: kobs/[I]): 2500 M⁻¹ s⁻¹
CCOC(=O)c1ccc(OCCC2CCN(c3ccc(C)nn3)CC2)cc1 [Pirodavir, reference compound]		7.52		CC50 at 2 days (in vitro): > 10 µM
CC(=O)NC[C@@H](NC(=O)[C@H](Cc1ccccc1)NC(=O)[C@H](CC(C)C)NC(=O)OCc1ccccc1)C(=O)C(=O)N1CCCCC1 [Compound 12, Cbz-L-Leu-L-Phe-D-(N-Ac-amino-Ala)-C(O)-Piperidine]		4.41	4.97	
